According to article PMC6891813, “Piltunines A–F from the Marine-Derived Fungus Penicillium piltunense KMM 4668” (Marine Drugs, 2019):

Key:
[1] = test system: human prostate non-cancer PNT-2 cells; assay: MTT cytotoxicity assay, PNT-2 cells; format: cell-based; details: Homo sapiens, PNT2, 72 h treatment
Description: (§1) We have investigated the effect of the isolated compounds 1, 1a, 2, 7–9 on the viability of human drug-resistant prostate cancer 22Rv1 cell as well as on human prostate non-cancer PNT-2 cells using an MTT assay (Table 3). We have also determined a selectivity index (SI) at for all the tested substances (Table 3). […] Note, 22Rv1 cells are known to be resistant to the hormone therapy due to the expression of androgen receptor splice variant AR-V7 [15]. Thus, the compounds which are active inAR-V7-positive 22Rv1 cells are of high clinical interest.
(§2) The human prostate cancer cells 22Rv1 and human prostate non-cancer cells PNT-2 were purchased from ATCC. Cell lines were cultured according to the manufacturers instructions in 10% FBS/RPMI media (Invitrogen). Cells were continuously kept in culture for a maximum of 3 months, and were routinely inspected microscopically for stable phenotype and regularly checked for contamination with mycoplasma. The authentity of the cells has recently been confirmed by the Multiplexion (Heidelberg, Germany) using highly polymorphic short tandem repeat loci.
(§3) The in vitro cytotoxicity of individual substances was evaluated using the MTT (3-(4,5-dimethylthiazol-2-yl)-2,5-diphenyltetrazolium bromide) assay, which was performed as previously described. The vehicle (DMSO) treated cells were used as a negative control. Treatment time was 72 h.

[2] = MTT cytotoxicity assay, PNT-2 cells; format: cell-based, human; details: human, PNT-2 prostate non-cancer cells, 100 µM, 72 h, read-out: Viability at 100 µM, % of Control, PNT-2 Cells
Description: as §1, §2, §3

[3] = test system: human drug-resistant prostate cancer 22Rv1 cell; assay: MTT cytotoxicity assay, 22Rv1 cells; format: cell-based; details: for viability at 100 µM / IC50: Homo sapiens, 22Rv1; for viability at 100 µM: read-out: Viability at 100 µM, % of Control, 22Rv1 Cells; for IC50: 72 h treatment; for SI (selectivity index): [viability of PNT-2 cells]/[viability of 22Rv1 cells] at 100 µM
Description: as §1, §2, §3

[4] = test system: murine peritoneal macrophages co-incubated with lipopolysaccharide (LPS); assay: ROS level analysis in LPS-treated macrophages (DCF-DA fluorescence); format: cell-based, Mice BALB/c; details: 10 μM, 1 h at 37 °C, LPS co-incubation; p < 0.05
Experimental: Figure 5 Effect of compounds on reactive oxygen species (ROS) level in murine peritoneal macrophages co-incubated with lipopolysaccharide (LPS). The compounds were tested at a concentration of 10 μM. Time of cell incubation with compounds was 1 h at 37 °C. * p < 0.05. (Student’s t-test).
The suspension of macrophages on 96-well plates (2 × 10^4 cells/well) were washed withphosphate-buffered saline (PBS) and treated with 180 µL/well of the tested compounds (10 μM) for 1 h and 20 µL/well LPS from E. coli serotype 055:В5 (Sigma-Aldrich, MA, USA, 1.0 μg/mL), which were both dissolved in PBS and cultured at 37 °C in a CO2-incubator for one hour. For the ROS levels measurement, 200 μL of 2,7-dichlorodihydrofluorescein diacetate (DCF-DA, Sigma, final concentration 10 μM) fresh solution was added to each well, and the plates were incubated for 30 min at 37 °C. The intensity of DCF-DA fluorescence was measured at λex 485 n/λem 518 nm using the plate reader PHERAstar FS (BMG Labtech, Offenburg, Germany).
Mice BALB/c were sacrificed by cervical dislocation. Peritoneal macrophages were isolated using standard procedures. For this purpose, 3 ml of PBS (pH 7.4) was injected into the peritoneal cavity and the body intensively palpated for 1–2 min. Then the peritoneal fluid was aspirated with a syringe. […]

[5] = test system: LPS-stimulated macrophages; assay: NO (RNS) level analysis in LPS-treated macrophages (DAF FM-DA fluorescence); format: cell-based, Mice BALB/c; details: 1 μM (non-toxic concentration); p < 0.05
Experimental: Compound 9 suppressed NO production in LPS-stimulated macrophages at non-toxic concentration of 1 μM. NO level in these cells was decreased by 24.1 ± 0.7% (p < 0.05, Student’s t-test) in comparison with LPS-treated control (data not shown). Therefore, compound 9 may be a promising candidate for the therapy of inflammatory diseases accompanying overproduction of NO.
The suspension of macrophages on 96-well plates (2 × 10^4 cells/well) were washed with the PBS and treated with 180 µL/well of the tested compounds (10 μM) for 1 h and 20 µL/well LPS from E. coli serotype 055:В5 (Sigma, 1.0 μg/mL), which were both dissolved in PBS and cultured at 37 °C in a CO2-incubator for one hour. For the RNS levels measurement, 200 μL Diaminofluorescein-FM diacetate (DAF FM-DA, Sigma, final concentration 10 μM) fresh solution was added to each well, and the plates were incubated for 40 min at 37 °C, then replace with fresh PBS, and then incubated for an additional 30 min to allow complete de-esterification of the intracellular diacetates. The intensity of DAF FM-DA fluorescence was measured at λex 485 n/λem 520 nm using the plate reader PHERAstar FS (BMG Labtech, Offenburg, Germany).
Mice BALB/c were sacrificed by cervical dislocation. Peritoneal macrophages were isolated using standard procedures. […]

Compound	IC50 [1] [µM]	viability at 72 h, 100 µM [2] [%]	viability at 100 µM ([3]; 72 h, MTT assay) [%]	IC50 ([3]; MTT assay) [µM]	SI (selectivity index) ([3]; 72 h)	Effect on ROS production [4]	Cytotoxicity in cancer cells in comparison with the other substances ([3]; MTT assay, 72 h)	Decrease of NO level in comparison with LPS-treated control [5] [%]	IC50 ([1]; positive control) [µM]	IC50 ([3]; MTT assay, positive control) [µM]
CC(CO)=C1CCC23COC(C2)C(O)(C(=O)O)CCC13 (centres unmarked) [Compound 1, Piltunine A]	> 100	97.2	65.5	> 100	1.48	–	–	–	–	–
COC(=O)C1(O)CCC2C(=C(C)CO)CCC23COC1C3 (centres unmarked) [Compound 1a]	> 100	80.4	62.2	> 100	1.29	–	–	–	–	–
CC(=O)OC/C(C)=C1\CC[C@]23CO[C@H](C2)[C@@](O)(C(=O)O)CC[C@@H]13 [Compound 2, Piltunine B]	> 100	82.9	61.9	> 100	1.34	–	–	–	–	–
CC(=O)C1=CC[C@]23CO[C@H](C2)[C@@](O)(C(=O)O)CC[C@@H]13 [Compound 5, Piltunine E]	–	–	–	–	–	significant down-regulation of ROS production	–	–	–	–
C=C(C)C1(O)CCC23COC(C2)C(O)(C(=O)O)CCC31 (centres unmarked) [Compound 7, penigrisacid D]	> 100	80.7	63.8	> 100	1.26	–	–	–	–	–
C[C@H]1CCC[C@H](C[C@H]2Cc3cc(O)cc(O)c3C(=O)O2)O1 [Compound 8, cladosporin]	> 100	88.1	38.7	71.7 ± 8.9	–	–	most cytotoxic in cancer cells	–	–	–
CC1OC(CC2Cc3cc(O)cc(O)c3C(=O)O2)CCC1O (centres unmarked) [Compound 9, 5’-hydroxyasperentin]	> 100	55.5	54.9	> 100	1.01	significant down-regulation of ROS production	–	24.1 ± 0.7	–	–
CC(=O)O[C@@]12CO[C@@H]1C[C@H](O)[C@@]1(C)C(=O)[C@H](O)C3=C(C)[C@@H](OC(=O)[C@H](O)[C@@H](NC(=O)OC(C)(C)C)c4ccccc4)C[C@@](O)([C@@H](OC(=O)c4ccccc4)[C@H]21)C3(C)C [Docetaxel, reference compound]	–	–	–	–	–	–	–	–	0.0847 ± 0.0206	0.00278 ± 0.00107
